pIC50, pKd: −log10 of the molar value.
Columns and labels:
[1] = target: T1, ΔNHAB1 with AtPYL1 (Arabidopsis thaliana, UniProt Q8VZS8); test: PP2C inhibition assay, HAB1 with AtPYL1; format: biochemical; settings: read-out: inhibition of HAB1
T1 construct: His; made in house
Protocol: (§1) His-tagged receptors and phosphatases were purified using nickel–nitrilotriacetic acid (Ni-NTA) affinity chromatography. Protein integrity was analyzed by SDS–polyacrylamide gel electrophoresis, followed by InstantBlue staining. Phosphatase activity was measured using p-Nitrophenyl Phosphate (pNPP) (25 mM) as substrate, 10 mM MnCl2,1 μM PP2C, and 2 μM of the indicated receptors. Proteins were incubated with the ligands for 10 min at room temperature. pNPP was then added to start the reactions, and the absorbance at 405 nm was monitored for 20 min in a ViktorX5 plate reader. Assays were repeated twice. For dose-response experiments, IC50 values were obtained with GraphPad Prism 9 using a nonlinear regression curve fit. Each ligand concentration was tested in triplicate. Phosphatase activity of ABI1 was measured using RRA(phosphoT)VA peptide as a substrate, as described ([27]).

[2] = target: T2, HAB1 with AtPYL4 (Arabidopsis thaliana, UniProt O80920); test: PP2C inhibition assay, HAB1 with AtPYL4; format: biochemical; settings: 1 µM phosphatase:2 µM receptor
T2 construct: His; made in house
T2 sequence (Q9CAJ0 179-511): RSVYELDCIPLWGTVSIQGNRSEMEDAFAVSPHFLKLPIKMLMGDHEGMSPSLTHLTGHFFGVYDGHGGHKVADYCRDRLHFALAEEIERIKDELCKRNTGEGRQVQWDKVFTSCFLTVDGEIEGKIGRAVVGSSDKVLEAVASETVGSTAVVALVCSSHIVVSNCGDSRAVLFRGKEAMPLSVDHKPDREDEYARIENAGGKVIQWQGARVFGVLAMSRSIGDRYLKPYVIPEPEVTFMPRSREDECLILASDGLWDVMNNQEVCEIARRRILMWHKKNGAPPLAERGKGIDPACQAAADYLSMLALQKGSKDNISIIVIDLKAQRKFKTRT
T2 sequence (O80920 whole entry): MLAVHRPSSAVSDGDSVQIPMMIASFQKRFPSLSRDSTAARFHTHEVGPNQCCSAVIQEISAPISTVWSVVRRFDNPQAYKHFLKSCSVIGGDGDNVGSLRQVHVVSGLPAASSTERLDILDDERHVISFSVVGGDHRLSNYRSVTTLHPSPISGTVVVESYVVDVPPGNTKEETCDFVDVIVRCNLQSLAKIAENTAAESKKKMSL
Protocol: as §1
Fig. S6. QB lacks bioactivity in tomato whereas iSB09 is
(A) Quantification of the leaf temperature difference at 2 and 5 days after spraying tomato plants with 0.1 % DMSO
(mock- treated control), 10 µM iSB09 or 10 µM QB.
Asterisk indicates p<0.001 (Student’s t test). Values show individual points and average ± SD (n=4 replicates for mock and chemical treatments). (B) IR-images of representative tomato plants at 2 days after being treated with 0.1 % DMSO […]

[3] = target: CsPYL1^5m:ΔNHAB1 (Citrus sinensis, UniProt A0A067E666, F137I/T135L/T153I/V112L/V168A); test: biochemical
Sequence of CsPYL1^5m:ΔNHAB1 (A0A067E666 1-209 V112L/T135L/F137I/T153I/V168A): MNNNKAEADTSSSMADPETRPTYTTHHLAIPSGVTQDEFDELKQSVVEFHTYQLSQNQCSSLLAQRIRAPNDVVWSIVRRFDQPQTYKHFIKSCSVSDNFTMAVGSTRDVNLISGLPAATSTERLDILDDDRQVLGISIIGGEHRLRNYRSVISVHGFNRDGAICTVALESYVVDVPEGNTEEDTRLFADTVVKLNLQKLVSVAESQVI
Sequence of CsPYL1^5m:ΔNHAB1 (Q9CAJ0 179-511 partner): as the sequence (Q9CAJ0 179-511) above
Protocol: To obtain the Kd values, the data were analyzed using nonlinear least-squares regression using a model considering a single set of binding sites implemented in Origin 7.0 (OriginLab).

[4] = system: Arabidopsis thaliana seedlings (WT Col-0, overexpressing lines, receptor mutants); test: Seedling establishment assay; format: in vivo
Protocol: Seedling establishment was scored as the percentage of seeds that developed green expanded cotyledons and the first pair of true leaves at 5 or 7 days. Seedling establishment assays in the presence of ABA receptor agonists were performed in 24-well plates, where approximately 25 to 35 seeds per well were sown. Each well contained a different treatment. The experiment was repeated at least twice.

[5] = system: Arabidopsis thaliana seedlings; test: Root growth assay; format: in vivo; settings: 10 μM
Protocol: Seedlings were grown on vertically oriented Murashige and Skoog (MS) plates for 4 to 5 days. Afterward, seedlings were transferred to MS supplemented with the indicated concentrations of the different ligands and kept on vertical orientation. Ten days later, the plates were scanned on a flatbed scanner to produce image files suitable for quantitative analysis of root growth using the NIH Image software ImageJ. The experiment was performed in triplicate (n = 13 to 16). Statistical comparisons were performed by either pairwise t tests or one-way ANOVA using GraphPad Prism 9.

[6] = system: Arabidopsis thaliana plants; test: IR thermography of leaf temperature, arabidopsis; format: in vivo; settings: transgenic CsPYL1^5m lines and Col-0, 50 μM, 24 hours after spraying
Protocol: A. thaliana plants were grown in a controlled environment growth chamber at 21°/19°C under 8-hour light/16-hour dark photoperiod at 100 μE m^−2 s^−1. IR thermography images of rosette leaves were acquired with a thermal camera FLIR E95 equipped with a 42° lens, 24 hours after spraying 6-week-old plants with 10 mM MES (pH 5.7) + 0.02% Silwet L-77 plus 50 μM ligand or 0.1% DMSO as a control. Images were processed and quantified with the FLIR tools software. The average temperature of 15 different sections taken from four to six leaves per plant was used for quantification. At least six plants per genotype were analyzed, and the experiments were repeated twice. Statistical analysis was performed using GraphPad Prism 9. T test or ANOVA analysis was carried out to identify statistical significance among datasets.

[7] = system: MAPKKK18 promoter-LUC reporter; test: pMAPKKK18-LUC luciferase reporter assay; format: in vivo, Arabidopsis thaliana; settings: 100 μM, 6 hours
Protocol: […]18-LUC seedlings were grown in 24-well plates (25 to 35 seeds per well) filled with 1 ml of liquid MS medium for 7 days. MS medium was replaced with fresh medium supplemented with 100 μM D-luciferin, potassium salt (GoldBio), and the indicated treatments with iSB07, iSB09, or ABA. Seedlings were incubated for 6 hours, and luminescence was recorded with a LAS-3000 imager (Fujifilm) equipped with a charge-coupled device camera using 2-min exposures. Eight-bit images were transformed in rainbow false color and quantified using Fiji. The experiment was repeated at least twice.

[8] = system: ABA-responsive markers; test: RNA sequencing of ABA-responsive markers; format: in vivo, Arabidopsis thaliana; settings: 5 μM iSB09, 3 hours
Protocol: Total RNA was extracted as indicated above. The quality of the samples was verified using Agilent 2100 Bioanalyzer. First-strand cDNA was prepared by an EasyScript One-Step gDNA Removal and cDNA Synthesis SuperMix (TransGen Biotech) with random hexamers. Sequencing of cDNA libraries was performed using the DNB-Seq technology at the Beijing Genomics Institute, producing at least 20 million clean reads per sample of paired-end 100-base pair read lengths. RNA-seq data analysis was carried out by the Bioinformatics core facility at Instituto de Biología Molecular y Celular de […]. After quality analysis of raw reads with FastQC (www.bioinformatics.babraham.ac.uk/projects/fastqc/), and quality trimming and adapter removal of raw reads with cutadapt (http://journal.embnet.org/index.php/embnetjournal/article/view/200), clean read pairs longer than 20 nucleotides were mapped to TAIR10 arabidopsis Col-0 reference genome using HISAT2 with default parameters, and nonuniquely mapped pairs were discarded with SAMtools. The number of read counts that uniquely mapped to each arabidopsis gene (Araport11 annotation) was obtained with HTSeq-count. Genes lacking at least 1 TPM ([…]) in the three replicates of at least one of the two conditions were filtered out, and differential expression analysis of the remaining genes was done with DESeq2. […]

T1 sequence (Q8VZS8 whole entry, stated change not applied): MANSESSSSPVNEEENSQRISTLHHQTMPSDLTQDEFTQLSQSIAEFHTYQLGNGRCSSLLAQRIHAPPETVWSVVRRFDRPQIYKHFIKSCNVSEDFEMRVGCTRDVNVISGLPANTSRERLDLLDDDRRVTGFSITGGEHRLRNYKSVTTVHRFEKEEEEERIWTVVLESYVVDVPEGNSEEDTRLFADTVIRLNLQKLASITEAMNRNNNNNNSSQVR

CCn1c(=O)cc(C)c2cc(CNS(=O)(=O)c3ccccc3)ccc21 [iSB09]
inhibition at 1 µM [1]: 60 to 70% | pIC50 [2]: 6.48 | pKd [3]: 6.25 | dosage able to inhibit seedling establishment ([4]; WT Col-0): 5 µM | agonist-induced inhibition of seedling establishment ([4]; mutants lacking functional PYR1 and PYL1, 10 μM iSB09): insensitive | dosage able to inhibit seedling establishment ([4]; plants that express CsPYL1^5m): 0.5 µM | inhibition of root growth ([5]; CsPYL1^5m lines): marked inhibition | inhibition of root growth ([5]; WT plants): did not significantly inhibit | leaf temperature by thermal imaging [6]: increased leaf temperature | induction of LUC relative to 25 μM ABA [7]: approximately twofold higher | increase of regulation of ABA-responsive markers in CsPYL1^5m background relative to WT [8]: 8- to 10 fold
